The text below walks through data of patent US12077534B2, “Aza-heterobicyclic inhibitors of MAT2A and methods of use for treating cancer” (Les Laboratoires Servier SAS, priority 2018, dated 2024).

Experiment [1] deals with T1, MAT2A homodimer (Homo sapiens, UniProt P31153).
T1 construct: inferred from Ni sepharose purification and imidazole elution; made in house; host or cells: SF9 insect cells, recombinant baculovirus (Bac to Bac, pFASTBAC1)
Briefly: MAT2A biochemical assay (phosphate release, PiColorLock Gold). As to conditions: recombinant MAT2A homodimer, 60 min pre-incubation, 25° C.; read-out: Enzyme Inhibition. In outline: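 Baculovirus/Sf9-expressed, Ni-purified MAT2A homodimer (4 µg/mL in pH 8.0 Tris/KCl/MgCl2 buffer) preincubated 60 min at 25 °C with compound (2% DMSO final). Substrate mix of 500 µM ATP and 400 µM L-methionine added; 60 min at 25 °C; released phosphate quantified colorimetrically against a phosphate standard curve.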

The test system of experiment [2] is MAT2A activity (SAM) in HCT116 cells with deleted MTAP gene. Briefly: Cellular assay of target engagement (SAM) by LC-MS/MS. As to conditions: Homo sapiens, read-out: Cell 72 h SAM Inhibition (MTAP −/−). The format is cell-based. In outline: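 HCT116 MTAP-deleted cells treated with 10-point 3-fold DMSO serial dilutions of compound for 72 hrs at 37° C. Cells lysed in cold 80% methanol/acetic acid extraction buffer with d3-SAM internal standard; SAM quantified by LC-MS/MS (MRM m/z 399.2→250.1).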

In experiment [3] the test system is HCT116 MTAP−/−. Briefly: Inhibition of cellular proliferation (Cell Titer Glo), HCT116 MTAP-/-. The format is cell-based. As to conditions: Homo sapiens, HCT-116, 96 h, 4 days, read-out: 4 Day Relative Growth Inhibition (MTAP −/−). In outline:
(§1)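 Isogenic HCT116 MTAP+/+ and MTAP−/− cells treated 24 h after plating with 10-point 3-fold dilutions, then grown 4 days at 37 °C/5% CO2. ATP content read by Cell Titer Glo luminescence, blank-subtracted and normalized to 0.2% DMSO control, plotted as percent proliferation change versus log molar concentration.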
(In general: Cellular ATP, detected with luciferase, serves as a proxy for viable cell number.)

Experiment [4] concerns HCT116 MTAP+/+. Briefly: Inhibition of cellular proliferation (Cell Titer Glo), HCT116 MTAP+/+. The format is cell-based. Conditions: Homo sapiens, HCT-116, 96 h, 4 days, read-out: 4 Day Relative Growth Inhibition (MTAP +/+). In short, it runs like this:
as §1

The mark [5] stands for this setting: HCT-116, HCT116 MTAP −/−, 72 hrs.

Read-outs that look alike come from different tables or passages of the source.

T1 sequence (P31153 whole entry): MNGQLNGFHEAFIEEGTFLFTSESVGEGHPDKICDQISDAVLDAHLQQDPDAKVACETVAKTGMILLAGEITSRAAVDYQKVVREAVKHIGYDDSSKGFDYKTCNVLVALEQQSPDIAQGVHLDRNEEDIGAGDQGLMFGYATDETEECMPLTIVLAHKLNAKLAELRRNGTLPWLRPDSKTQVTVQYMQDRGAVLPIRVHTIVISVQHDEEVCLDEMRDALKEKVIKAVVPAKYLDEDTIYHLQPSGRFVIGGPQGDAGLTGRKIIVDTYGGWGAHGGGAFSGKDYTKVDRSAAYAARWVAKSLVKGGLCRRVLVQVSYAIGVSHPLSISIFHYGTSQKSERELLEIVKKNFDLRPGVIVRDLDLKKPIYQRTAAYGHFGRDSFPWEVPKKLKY

Regarding `CCOc1ccc2nn(-c3ccc4nn(C)cc4c3)c(=O)c(-c3ccc(OC(F)F)cc3)c2n1` [Example 217, 4-(4-(difluoromethoxy)phenyl)-6-ethoxy-2-(2-methyl-2H-indazol-5-yl)pyrido[3,2-c]pyridazin-3(2H)-one], the IC50 in experiment [1] is < 100 nM; in experiment [2] (setting [5]), < 100 nM; in experiment [3] it was < 100 nM; in experiment [4], 100 to 1000 nM.

`CCCc1ccc2nn(-c3ccc4nn(C)cc4c3)c(=O)c(-c3ccc(OC(F)F)cc3)c2n1` [Example 205, 4-(4-(difluoromethoxy)phenyl)-2-(2-methyl-2H-indazol-5-yl)-6-propylpyrido[3,2-c]pyridazin-3(2H)-one]: the IC50 is < 100 nM in experiment [1], < 100 nM in experiment [2] (setting [5]), < 100 nM in experiment [3] and ≥ 1000 nM in experiment [4].

`CCOc1ccc2nn(-c3ccc4ncccc4c3)c(=O)c(-c3ccc(Cl)cc3)c2n1` [Example 168]: the IC50 in experiment [1] is < 100 nM; in experiment [2] (setting [5]), < 100 nM; in experiment [3], 100 to 1000 nM; in experiment [4] it was ≥ 1000 nM.

With `Cn1cc2cc(-n3nc4ccc(N5CCCC5)nc4c(-c4ccc(OC(F)F)cc4)c3=O)ccc2n1` [Example 163], the IC50 was < 100 nM in experiment [1], > 1000 nM in experiment [2] (setting [5]), ≥ 1000 nM in experiment [3] and ≥ 1000 nM in experiment [4].

`CCNc1ccc2nn(-c3ccc4nn(C)cc4c3)c(=O)c(-c3ccc(OC(F)F)nc3)c2n1` [Example 313]: the IC50 in experiment [1] is < 100 nM; in experiment [2] (setting [5]), < 100 nM; in experiment [3], < 100 nM; in experiment [4], 100 to 1000 nM.

Turning to `[2H]C([2H])([2H])Oc1ccc(-c2c(=O)n(-c3ccc4nn(C)cc4c3)nc3ccc(OCCF)nc23)cc1` [Example 157], the IC50 in experiment [1] was < 100 nM; in experiment [2] (setting [5]), 100 to 1000 nM; in experiment [3] it was 100 to 1000 nM; in experiment [4], ≥ 1000 nM.

For the molecule `Cn1cc2cc(-n3nc4c(COC5CCCCO5)cc(OCC(F)F)nc4c(-c4ccc(OC(F)F)cc4)c3=O)ccc2n1` (stereo not shown) [Example 142, 6-(2,2-difluoroethoxy)-4-(4-(difluoromethoxy)phenyl)-2-(2-methyl-2H-indazol-5-yl)-8-(((tetrahydro-2H-pyran-2-yl)oxy)methyl)pyrido[3,2-c]pyridazin-3(2H)-one], the IC50 in experiment [1] is < 100 nM; in experiment [2] (HCT-116, 72 h), 100 to 1000 nM; in experiment [3], 100 to 1000 nM; in experiment [4] it was ≥ 1000 nM.

As to `Cn1cc2cc(-n3nc4ccc(OCC(F)F)nc4c(-c4ccc(OC(F)(F)F)cc4)c3=O)ccc2n1` [Example 109], the IC50 in experiment [1] is < 100 nM; in experiment [2] (setting [5]), < 100 nM; in experiment [3], < 100 nM; in experiment [4], ≥ 1000 nM.

`Cn1cc2cc(-n3nc4ccc(OCC(F)F)nc4c(-c4ccc(C5CC5)cc4)c3=O)ccc2n1` [Example 114]: the IC50 in experiment [1] is < 100 nM; in experiment [2] (setting [5]), < 100 nM; in experiment [3], < 100 nM; in experiment [4] it was ≥ 1000 nM.

Regarding `Cn1cc2cc(-n3nc4ccc(NCC(F)(F)F)nc4c(-c4ccc(Cl)cc4)c3=O)ccc2n1` [Example 154], the IC50 in experiment [1] was < 100 nM; in experiment [2] (setting [5]), < 100 nM; in experiment [3] it was < 100 nM; in experiment [4] it was ≥ 1000 nM.

As for `CCc1c2cc(-n3nc4ccc(OCC(F)F)nc4c(-c4ccc(OC(F)F)cc4)c3=O)ccc2nn1C` [Example 208, 6-(2,2-difluoroethoxy)-4-(4-(difluoromethoxy)phenyl)-2-(3-ethyl-2-methyl-2H-indazol-5-yl)pyrido[3,2-c]pyridazin-3(2H)-one], the IC50 in experiment [1] was < 100 nM; in experiment [2] (setting [5]), < 100 nM; in experiment [3], < 100 nM; in experiment [4], 100 to 1000 nM.

As for `CCOc1ccc2nn(-c3ccc4nn(C)cc4c3)c(=O)c(-c3ccc(OC(F)F)nc3)c2n1` [Example 120], the IC50 in experiment [1] is < 100 nM; in experiment [2] (setting [5]), < 100 nM; in experiment [3], < 100 nM; in experiment [4], ≥ 1000 nM.

Consider `CCOc1ccc2nn(-c3ccc(OC)cc3)c(=O)c(-c3ccc(OC(F)(F)F)nc3)c2n1` [Example 136], for which the IC50 is < 100 nM in experiment [1], 100 to 1000 nM in experiment [2] (setting [5]), 100 to 1000 nM in experiment [3] and ≥ 1000 nM in experiment [4].

Take `CCNc1ccc2nn(-c3ccc4nn(C)cc4c3)c(=O)c(-c3ccc(C(F)F)nc3)c2n1` [Example 310]: the IC50 was < 100 nM in experiment [1], < 100 nM in experiment [2] (setting [5]), < 100 nM in experiment [3] and ≥ 1000 nM in experiment [4].

For the molecule `COc1ccc(-n2nc3ccc(OCC(F)F)nc3c(-c3ccc(OC(F)F)cc3)c2=O)cc1` [Example 105], the IC50 is < 100 nM in experiment [1], 100 to 1000 nM in experiment [2] (setting [5]), 100 to 1000 nM in experiment [3] and ≥ 1000 nM in experiment [4].

Take `Cn1cc2cc(-n3nc4ccc(OCC(F)F)nc4c(-c4ccc(O)cc4)c3=O)ccc2n1` [Example 207, 6-(2,2-difluoroethoxy)-4-(4-hydroxyphenyl)-2-(2-methyl-2H-indazol-5-yl)pyrido[3,2-c]pyridazin-3(2H)-one]: the IC50 was < 100 nM in experiment [1], < 100 nM in experiment [2] (setting [5]), 100 to 1000 nM in experiment [3] and ≥ 1000 nM in experiment [4].

In the case of `CCNc1ccc2nn(-c3ccc4nn(C)cc4c3)c(=O)c(-c3ccc(C(F)(F)F)nc3)c2n1` [Example 316], the IC50 is < 100 nM in experiment [1], < 100 nM in experiment [2] (setting [5]), < 100 nM in experiment [3] and ≥ 1000 nM in experiment [4].

With `Cn1cc2cc(-n3nc4ccc(OCC(F)F)nc4c(-c4cccc(Cl)c4)c3=O)ccc2n1` [Example 140], the IC50 was < 100 nM in experiment [1], 100 to 1000 nM in experiment [2] (setting [5]), < 100 nM in experiment [3] and ≥ 1000 nM in experiment [4].

Regarding `[2H]C([2H])([2H])n1cc2cc(-n3nc4ccc(NC([2H])([2H])C([2H])([2H])[2H])nc4c(-c4ccc(C(F)F)nc4)c3=O)ccc2n1` [Example 321, 4-(6-(difluoromethyl)pyridin-3-yl)-6-((ethyl-d5)amino)-2-(2-(methyl-d3)-2H-indazol-5-yl)pyrido[3,2-c]pyridazin-3(2H)-one], the IC50 was < 100 nM in experiment [1], < 100 nM in experiment [2] (setting [5]), < 100 nM in experiment [3] and ≥ 1000 nM in experiment [4].

For `COc1nc2ccc(-n3nc4ccc(OCC(F)F)nc4c(-c4ccc(OC(F)F)cc4)c3=O)cc2n1C` [Example 172], the IC50 is < 100 nM in experiment [1], < 100 nM in experiment [2] (setting [5]), < 100 nM in experiment [3] and ≥ 1000 nM in experiment [4].

As for `Cn1cc2cc(-n3nc4ccc(OCC5CC5)nc4c(-c4ccc(C5CC5)nc4)c3=O)ccc2n1` [Example 303], the IC50 is < 100 nM in experiment [1], < 100 nM in experiment [2] (setting [5]), < 100 nM in experiment [3] and ≥ 1000 nM in experiment [4].

In the case of `O=c1c(-c2ccc(Br)cc2)c2nc(OCC(F)F)ccc2nn1-c1ccc2ncsc2c1` [Example 201, 2-(benzo[d]thiazol-6-yl)-4-(4-bromophenyl)-6-(2,2-difluoroethoxy)pyrido[3,2-c]pyridazin-3(2H)-one], the IC50 in experiment [1] was < 100 nM; in experiment [2] (setting [5]), < 100 nM; in experiment [3] it was < 100 nM; in experiment [4], ≥ 1000 nM.

For `Cn1cc2cc(-n3nc4ccc(NCC(F)F)nc4c(-c4ccc(Cl)cc4)c3=O)ccc2n1` [Example 156], the IC50 in experiment [1] is < 100 nM; in experiment [2] (setting [5]), < 100 nM; in experiment [3], < 100 nM; in experiment [4], ≥ 1000 nM.

As for `COc1ccc(-c2c(=O)n(-c3ccc4nn(C)cc4c3)nc3ccc(OCC(F)F)nc23)cn1` [Example 130], the IC50 in experiment [1] is < 100 nM; in experiment [2] (setting [5]) it was < 100 nM; in experiment [3], < 100 nM; in experiment [4], 100 to 1000 nM.

For `CCOc1ccc2nn(-c3ccc(OC)cc3)c(=O)c(-c3ccc(OC(F)F)nc3)c2n1` [Example 122], the IC50 in experiment [1] was < 100 nM; in experiment [2] (setting [5]) it was 100 to 1000 nM; in experiment [3], < 100 nM; in experiment [4], ≥ 1000 nM.

Consider `CNC(=O)c1ccc(-n2nc3ccc(OCC(F)F)nc3c(-c3ccc(OC(F)F)cc3)c2=O)cc1` [Example 189], for which the IC50 was < 100 nM in experiment [1], 100 to 1000 nM in experiment [2] (setting [5]), 100 to 1000 nM in experiment [3] and ≥ 1000 nM in experiment [4].

In the case of `O=c1c(-c2ccc(OC(F)F)cc2)c2nc(OCC(F)F)ccc2nn1-c1ccc2ncncc2c1` [Example 179], the IC50 is < 100 nM in experiment [1], < 100 nM in experiment [2] (setting [5]), 100 to 1000 nM in experiment [3] and ≥ 1000 nM in experiment [4].

Consider `Cn1cc2cc(-n3nc4ccc(SCC(F)(F)F)nc4c(-c4ccc(OC(F)F)cc4)c3=O)ccc2n1` [Example 165], for which the IC50 in experiment [1] is < 100 nM; in experiment [2] (setting [5]) it was < 100 nM; in experiment [3], < 100 nM; in experiment [4] it was 100 to 1000 nM.
